Assay results published in patent publication US8465983B1, “Detection and delivery systems utilizing supported lipid bilayers” (priority 2005, dated 2013).

Key:
[1] = Lipid bilayers on MS-PPE as barriers to superquenching by AQS, flow cytometry; conditions: 10 μM AQS
Description: FIG. 15 graphically illustrates flow cytometric evaluations of different lipids that involved formation of supported lipid bilayers on MS-PPE for the purpose of forming a barrier to quenching by AQS. Lipids tested were 2 mM DPPC, 1 mM egg-PC, and 2 mM DMPG. Fluorescence was normalized to that of MS-PPE without lipids and in absence of AQS. −AQS and +AQS refer to absence and presence of 10 μM AQS. The errors bars represent SD of means of normalized histograms obtained for triplicates.
Small unilamellar vesicles (SUVs) were prepared using a 2 mM solution of DPPC, 1 mM egg-PC, or 2 mM DMPG in chloroform. The lipid was dried by nitrogen gas followed by vacuum. The dried lipid was resuspended in phosphate buffer saline (PBS), pH 7.4, and incubated at 37° C. for 10 min, then sonicated to optical clarity in a sonication bath (Branson Cleaning Equipment Co., Shelton, Conn.).
Lipid bilayers were assembled on microspheres as previously described (Buranda et al. Langmuir 19:1654-1663 (2003); Bayerl & Bloom, Biophys J 58:357-362 (1990)). […]
Bead suspensions of 2.5×10^5 PPE-coated microspheres in 200 μL PBS were analyzed using a FACScan flow cytometer (Becton-Dickinson, Sunnyvale, Calif.) with excitation at 488 nm. Fluorescence signals were acquired on the FL-1 channel (525 nm) using log amplification and analyzed with the CellQuest software.

[2] = test system: 80:20 (molar ratio) DMPG and DMPC bilayer on porous silica beads; test: Suspension study: melittin on DMPG/DMPC 80:20 bilayers on fluorescein-containing porous beads; format: biochemical; conditions: 220 μM melittin (FIG. 6 legend prints 220 pM), 25° C.
Description: (§1) Experimental procedures were similar to the TRITON X-100 detergent based analysis. For experiments with α-toxin, three different toxin concentrations: 15, 45 and 250 μg/mL were used at 37° C. and 25° C. Beads coated with EPC were used. In the experiments with melittin, 220 μM melittin was used with beads coated with either 100% EPC, 10:90 (molar ratio) mixture of DMPG and EPC or an 80:20 mixture of DMPG and DMPC. All melittin experiments were conducted at 25° C.
In view of the results shown in FIG. 5, the effects of melittin on other mixtures of lipids were examined. […] A 80:20 mixture (molar ratio) of DMPG and DMPC was used to form the lipid bilayers used in this experiment. The increase in fluorescence intensity due to the membrane-melittin interaction, which results in the release of dye from porous beads was about 10 fold. Although this release was not as high as that observed when using TRITON X-100 detergent, it is notable in comparison to the release with α-toxin.

[3] = test system: 90:10 (molar ratio) EPC and DMPG bilayer on porous silica beads; test: Suspension study: melittin on EPC/DMPG 90:10 bilayers on fluorescein-containing porous beads; format: biochemical; conditions: highly concentrated melittin, 25° C.
Description: as §1
The interaction of highly concentrated melittin solutions was examined with membranes supported on fluorescein containing porous beads, where the membranes contained 100% EPC or a 90:10 mixture (molar ratio) of EPC and DMPG (a negatively charged lipid). […] In the absence of peptide, the amount of dye leakage from the EPC/DMPG beads was similar to that for EPC coated beads.

[4] = test system: DMPG lipid bilayer supported on MS-PPE; test: Superquenching flow cytometric assay for disruption of DMPG lipid bilayer supported on MS-PPE; format: biochemical; conditions: for quenching of the MS-PPE after addition of peptide / association constant with DMPG (reciprocal of the point of half saturation): 10 μM AQS; for quenching of the MS-PPE after addition of peptide: sMLT 3.8 μM, nMLT 1.6 μM, TRITON X-100 0.25% (w/v); for association constant with DMPG (reciprocal of the point of half saturation): binding curves, flow cytometry
Description: Lipid bilayers were disrupted by adding TRITON X-100 detergent to the bead suspension to a final concentration of 0.25% (w/v).
Bead suspensions of 2.5×10^5 DMPG-coated MS-PPE in 200 μL of PBS were analyzed using a FACScan flow cytometer (Becton-Dickinson, Sunnyvale, Calif.) with excitation at 488 nm. Fluorescence signals were acquired on FL-1 channel (525 nm) using log amplification and analyzed with the CellQuest software. Kinetic analysis of disruption of supported lipid bilayer by melittin was performed by acquiring real-time data with continuous mixing of samples (10^6 MS-PPE in 800 μl of PBS) using a magnetic stirrer. The raw data were analyzed using IDL Query software developed by Bruce Edwards (Cancer Center, University of New Mexico, Albuquerque, N. Mex.).
Because an anionic lipid was used to form a lipid bilayer around MS-PPE, it was expected that MLT will disrupt the DMPG lipid bilayer by such a detergent-like action. This was tested by adding 10 μM AQS to DMPG-coated MS-PPE followed by treatment with one of the following: TRITON X-100 detergent, synthetic MLT (sMLT), or natural MLT (nMLT) and immediately reading the fluorescence by flow cytometry. […] These histograms resemble the ones reported previously for MS-PPE, without a lipid coating, in absence and in presence of AQS.
From FIG. 18, the association constant (corresponding to the reciprocal of the point of half saturation) for nMLT and sMLT with DMPG were 5×10^6 M^−1 and 1.7×10^6 M^−1, respectively. […] Lower concentrations of nMLT, in comparison to sMLT, were required to disrupt the DMPG lipid bilayer. This might be attributed to the fact that nMLT contains some phospholipase A2 (PLA2) as a contaminant. PLA2 has a high affinity for anionic phospholipids, with an association constant of 0.5×10^10 M^−1 (Kim et al., Anal. Chem. 250, 109-116 (1997)), which is about 3000 fold higher than that of MLT. Although PLA2 activity requires calcium, which is not present in the experimental system, it has been reported that even upon addition of EDTA to natural MLT, PLA2 maintains its activity, probably due to formation of a tight complex with calcium with PLA2 (Dempsey, C. E. Biochim. Biophys. Acta 1990, 1031, 143-161).
The kinetics of disruption of supported lipid bilayer by MLT were monitored by measuring real-time changes in fluorescence intensity by flow cytometry (FIG. 19). Suspensions of 10^6 DMPG-coated MS-PPE in 800 μL of PBS were treated with AQS at a final concentration of 10 μM, then with either sMLT, TRITON X-100 detergent, or no treatment. […] Treatment with sMLT in the absence of AQS led to an increase in normalized fluorescence (FIG. 19, trace A). This can be attributed to disruption of the lipid bilayer by sMLT, and is consistent with a reversal of the slight quenching of fluorescence caused by the formation of a DMPG lipid bilayer over MS-PPE. Addition of AQS alone to DMPG-coated MS-PPE (FIG. 19, trace C) led to a 20% reduction in fluorescence as reported earlier. Addition of TRITON X-100 detergent to DMPG-coated MS-PPE after the addition of AQS (first dip in trace E, FIG. 19) caused immediate decrease in fluorescence to ˜10% of its original value (second dip in trace E, FIG. 19). In contrast, addition of sMLT, after the addition of AQS, (FIG. 19, trace D) led to a gradual reduction of fluorescence intensity to ˜20% of the original value. Although MLT forms dimers at high concentrations (Dempsey, C. E. Biochim. Biophys. Acta 1990, 1031, 143-161), it is monomeric at the concentrations used in this study. On the other hand, TRITON X-100 detergent forms micelles at the concentration used in this study.

[5] = test system: supported lipid bilayer surrounding a porous bead that contains fluorescein; test: Kinetics of supported lipid bilayer disruption by α-toxin, pH gradient, flow cytometry; format: biochemical
From the text: FIGS. 4A-B illustrates the effects of alpha-toxin on lipid bilayer integrity. FIG. 4A graphically illustrates dose-dependent release of fluorescent dye from a lipid bilayer coated microbead after introduction of different concentrations of alpha-toxin, a membrane-associated pore-forming protein from Staphylococcus aureus. The normalized fluorescence intensity (at 520 nm) of the supernatant is plotted versus time for EPC-coated, fluorescein filled porous beads when using different concentrations of α-toxin added. 10% Triton was added after 150 min. FIG. 4B illustrates the kinetics of disrupting a supported lipid bilayer by α-toxin as monitored by recording changes in fluorescence intensity every 2 minutes by flow cytometry. The lipid bilayer surrounded a porous bead that contains a pH-reactive molecule (fluorescein), and the pH outside the beads was adjusted to 11.0, whereas inside the beads the pH was 2.6. As illustrated, increasing amounts of c′-toxin increases the fluorescence emitted from within the beads.
In another experiment a lipid bilayer surrounding a porous bead that contains a pH-reactive molecule (fluorescein) was exposed to α-toxin. The pH outside the beads was adjusted to 11.0, whereas inside the beads the pH was 2.6. The kinetics of disruption of supported lipid bilayer by α-toxin were monitored by recording changes in fluorescence intensity every 2 minutes by flow cytometry. For the first 8 minutes there was no significant change in fluorescence intensity (FIG. 4B). However, after 8 minutes there was a gradual increase in fluorescence intensity (FIG. 4B) resulting from insertion of α-toxin into the supported lipid bilayer thus forming channels permeable to hydrogen cations and hydroxyl ions, which reduces the difference in the pH outside and inside the microspheres. […] This can be attributed to insertion of many α-toxin channels at this high concentration leading to disruption of the lipid bilayer and immediate equilibration of the pH inside and outside the porous microspheres.

[6] = test system: EPC lipid bilayer on porous silica beads; test: Suspension study: disruption of EPC bilayers on fluorescein-containing porous silica beads, release of dye into supernatant; format: biochemical; conditions: all three concentrations 15, 45 and 250 μg/mL
Description: Lipid coatings on beads were disrupted using 10% TRITON X-100 detergent. Each sample in micro-centrifuge tubes contained 5 mg of lipid bilayer coated, fluorescein entrapped beads in 200 μL of Tris buffer. Samples were centrifuged and 100 μL aliquots of supernatant were mixed with either 100 μL of Tris buffer or 100 μL of 10% TRITON X-100 detergent in separate centrifuge tubes. The fluorescence intensity of each mixture was immediately (time=0) recorded. Each mixture was mixed with its respective bead sample in centrifuge tube and incubated at 25° C. in the dark. After 30 min, samples were centrifuged and fluorescent intensity of the supernatants was measured. Beads were resuspended in their respective supernatants. Fluorescence intensity was again measured at 90 and 150 min.
as §1
Previous suspension studies on disruption of lipid bilayers have been performed with small unilamellar vesicles where disruption of the lipid bilayer membranes was detected by monitoring the unquenching of a highly concentrated, encapsulated dye. In the present work disruption was monitored via release of fluorescein dye from porous beads, by measuring the increase in fluorescence intensity of the supernatant at 520 nm. Beads were first suspended in Tris buffer containing the disruptor. After selected time periods, beads were sedimented by centrifuging and a portion of the supernatant was taken for the measurement. The measured portion was added back to the bead sample to permit continuous monitoring. The scattering effect that was present in vesicle based studies was minimized by measuring only the supernatant after centrifugation of the beads.

## CCCCCCCCCCCCCCCC(=O)OC[C@H](COP(=O)([O-])OCC[N+](C)(C)C)OC(=O)CCCCCCCCCCCCCCC [DPPC, 1,2-dipalmitoyl-sn-glycero-3-phosphatidylcholine]
[1]
  fluorescence with quencher relative to MS-PPE and quencher without the lipid: ~10 fold
  reduction (quenching) of polymer fluorescence of lipid-coated MS-PPE on addition of AQS: ~40%

## CC[C@H](C)[C@H](NC(=O)CN)C(=O)NCC(=O)N[C@@H](C)C(=O)N[C@H](C(=O)N[C@@H](CC(C)C)C(=O)N[C@@H](CCCCN)C(=O)N[C@H](C(=O)N[C@@H](CC(C)C)C(=O)N[C@H](C(=O)N[C@H](C(=O)NCC(=O)N[C@@H](CC(C)C)C(=O)N1CCC[C@H]1C(=O)N[C@@H](C)C(=O)N[C@@H](CC(C)C)C(=O)N[C@H](C(=O)N[C@@H](CO)C(=O)N[C@@H](Cc1c[nH]c2ccccc12)C(=O)N[C@H](C(=O)N[C@@H](CCCCN)C(=O)N[C@@H](CCCNC(=N)N)C(=O)N[C@@H](CCCCN)C(=O)N[C@@H](CCCNC(=N)N)C(=O)N[C@@H](CCC(N)=O)C(=O)N[C@@H](CCC(N)=O)C(N)=O)[C@@H](C)CC)[C@@H](C)CC)[C@@H](C)O)[C@@H](C)O)C(C)C)C(C)C [melittin]
[2]
  increase in fluorescence intensity due to release of dye: about 10 fold
[3]
  release of dye from EPC/DMPG coated beads compared with 100% EPC coated beads: slightly higher

## nMLT: natural melittin from Sigma, contains some phospholipase A2 as a contaminant
[4]
  quenching of the MS-PPE after addition of peptide: comparable to that occurring on addition of TRITON X-100 detergent
  association constant with DMPG (reciprocal of the point of half saturation): 5e+06 M⁻¹

## sMLT: synthetic melittin obtained from Sigma
[4]
  quenching of the MS-PPE after addition of peptide: comparable to that occurring on addition of TRITON X-100 detergent
  association constant with DMPG (reciprocal of the point of half saturation): 1.7e+06 M⁻¹
[4]; 10^6 DMPG-coated MS-PPE in 800 μL PBS, after 10 μM AQS
  fluorescence intensity after addition, % of original value (real-time kinetics): ~20%

## α-toxin: membrane active pore-forming protein secreted by Staphylococcus aureus, ˜33 kDa
[5]; pH 11.0 outside, pH 2.6 inside beads
  concentration at which increase in fluorescence intensity reached its maximum: 15 µg/mL
[5]; pH 11.0 outside, pH 2.6 inside beads, read every 2 minutes
  time without significant change in fluorescence intensity before gradual increase: 8 min
[5]; α-toxin 45 μg/mL
  change in fluorescence intensity: did not cause a change in fluorescence intensity different from the baseline
[6]; 25° C.
  increase in fluorescence intensity after 150 min: about 3 fold
[6]; 37° C.
  increase in fluorescence intensity after 150 min: about 6.5 fold
